Test results from EPA's ToxRefDB 2.

Tests used:
[1] = test system: dog; conditions: Sub-acute repeat dose toxicity, beagle, Oral, Gavage/Intubation, dose end: 4 week, group: systemic
[2] = test system: rat; conditions: Sub-acute repeat dose toxicity, sprague dawley, Oral, Gavage/Intubation, dose end: 1 month, group: systemic
[3] = test system: mouse; conditions: Subchronic oral toxicity in rodents, b6c3f1, Feed, dose end: 13 week, group: systemic
[4] = test system: rat; conditions: Subchronic oral toxicity in rodents, fischer, Feed, dose end: 13 week
[5] = test system: rat; conditions: Peri- and post-natal toxicity study (Segment III), sprague dawley, Oral, Gavage/Intubation, dose end: 43 PND
[6] = test system: rat; conditions: Combined chronic toxicity/carcinogenicity, sprague dawley, Oral, Feed, dose end: 2 year, group: systemic
[7] = test system: mouse; conditions: Developmental neurotoxicity study; cd1; Injection; Subcutaneous; dose end: 42 PND; group: cannot be grouped; systemic / in life observation / body weight / offspring (pup) weight
[8] = test system: rat; conditions: Combined chronic toxicity/carcinogenicity, sprague dawley, Oral, Feed, dose end: 2 year
[9] = test system: dog; conditions: Chronic toxicity, beagle, Oral, Feed, dose end: 52 week
[10] = test system: mouse; conditions: Combined chronic toxicity/carcinogenicity; cd1; Oral; Feed; dose end: 95 week; group: systemic; systemic / in life observation / body weight / body weight gain
[11] = test system: rabbit; conditions: Prenatal developmental toxicity study, new zealand white, Oral, Gavage/Intubation, dose end: 19 GD
[12] = systemic / clinical chemistry / alanine aminotransferase (alt/sgpt) / alanine aminotransferase (alt/sgpt) + systemic / hematology / blood …
[13] = systemic / in life observation / body weight / body weight gain + systemic / in life observation / food consumption / food consumption
[14] = systemic / in life observation / body weight / body weight gain + systemic / in life observation / food consumption / food consumption + …
[15] = systemic / organ weight / liver / relative to body weight
[16] = group: maternal, reproductive / reproductive performance / estrous cycle / abnormal
[17] = group: systemic, systemic / hematology / mean corpuscular (cell) volume (mcv) / mean corpuscular (cell) volume (mcv) + systemic / hematology / mean …
[18] = group: systemic, systemic / pathology microscopic / kidney / nephropathy
[19] = group: developmental, developmental / developmental landmark / vaginal opening / vaginal opening
[20] = group: maternal, reproductive / reproductive performance / estrous cycle / [other] + reproductive / reproductive performance / estrous cycle / abnormal
[21] = group: parental, systemic / organ weight / adrenal gland / absolute
[22] = systemic / in life observation / body weight / body weight
[23] = systemic / pathology microscopic / preputial gland / atrophy
[24] = group: cholinesterase, cholinesterase / cholinesterase / cholinesterase / brain cholinesterase (che)
[25] = group: cholinesterase, cholinesterase / cholinesterase / cholinesterase / brain cholinesterase (che) + cholinesterase / cholinesterase / cholinesterase / plasma …
[26] = group: systemic, systemic / in life observation / body weight / body weight + systemic / in life observation / body weight / body weight gain
[27] = group: cholinesterase, cholinesterase / cholinesterase / cholinesterase / cholinesterase (che) + cholinesterase / cholinesterase / cholinesterase / plasma …
[28] = group: systemic, systemic / in life observation / clinical signs / [other] + systemic / in life observation / clinical signs / labored respiration + systemic…
[29] = group: developmental, developmental / developmental landmark / incisor eruption / incisor eruption + developmental / developmental malformation / bone / absent + …
[30] = group: maternal, systemic / in life observation / body weight / body weight gain + systemic / in life observation / food consumption / food efficiency
[31] = group: maternal, systemic / in life observation / body weight / body weight gain + systemic / in life observation / food consumption / food efficiency + …

With `CC(=O)O.COCCOc1cc2cc(C(=O)NC3CCN(C(C)C)CC3)n(CC(=O)Nc3ccc(Cl)cn3)c2cn1` as the compound, how does the LOAEL [1, 12] read?
Its LOAEL is 75 mg/kg/day.

And the NEL [1, 12]?
Its NEL is 3 mg/kg/day.

What about the NOAEL [1, 12] of the same compound?
Its NOAEL is 15 mg/kg/day.

What about the LEL ([1]; systemic / organ weight / liver / absolute + systemic / organ weight / liver / relative to body weight) of the same compound?
Its LEL is 15 mg/kg/day.

And the LEL [2, 13]?
The LEL was 10 mg/kg/day.

And the NEL [2, 13]?
The NEL was < 10 mg/kg/day.

And the LOAEL [2, 14]?
Its LOAEL is 30 mg/kg/day.

And the NOAEL [2, 14]?
The NOAEL was 10 mg/kg/day.

How did the LOAEL ([3]; systemic / in life observation / body weight / body weight gain) turn out when `Cc1cccc([N+](=O)[O-])c1` [3-Nitrotoluene] was run?
The LOAEL was 743 mg/kg/day.

What about the NOAEL [3, 14] of the same compound?
Its NOAEL is 398 mg/kg/day.

What about the LEL [3, 15] of the same compound?
Its LEL is 114 mg/kg/day.

And the NEL [3, 15]?
Its NEL is < 114 mg/kg/day.

And the LEL [4, 16]?
The LEL was 336 mg/kg/day.

And the LOAEL [4, 16]?
Its LOAEL is > 638 mg/kg/day.

And the NEL [4, 16]?
The NEL was 172 mg/kg/day.

And the NOAEL [4, 16]?
Its NOAEL is ≥ 638 mg/kg/day.

And the LOAEL [4, 17]?
Its LOAEL is 336 mg/kg/day.

And the NOAEL [4, 17]?
The NOAEL was 172 mg/kg/day.

And the LEL [4, 18]?
The LEL was 46 mg/kg/day.

And the NEL [4, 18]?
Its NEL is < 46 mg/kg/day.

With `C#C[C@]1(O)CC[C@H]2[C@@H]3CCc4cc(O)ccc4[C@H]3CC[C@@]21C` [17alpha-Ethinylestradiol] as the compound, how does the LEL [5, 19] read?
The LEL was 0.005 mg/kg/day.

What about the LOAEL [5, 19] of the same compound?
The LOAEL was > 0.005 mg/kg/day.

And the NEL [5, 19]?
The NEL was 0.0025 mg/kg/day.

What about the NOAEL [5, 19] of the same compound?
The NOAEL was ≥ 0.005 mg/kg/day.

What about the LEL [5, 20] of the same compound?
Its LEL is 0.005 mg/kg/day.

What about the LOAEL [5, 20] of the same compound?
The LOAEL was > 0.005 mg/kg/day.

And the NEL [5, 20]?
The NEL was 0.0025 mg/kg/day.

And the NOAEL [5, 20]?
Its NOAEL is ≥ 0.005 mg/kg/day.

And the LEL [5, 21]?
The LEL was 0.0025 mg/kg/day.

What about the LOAEL [5, 21] of the same compound?
Its LOAEL is > 0.005 mg/kg/day.

And the NEL [5, 21]?
The NEL was < 0.0025 mg/kg/day.

What about the NOAEL [5, 21] of the same compound?
The NOAEL was ≥ 0.005 mg/kg/day.

And the LEL [6, 22]?
Its LEL is 0.00012 mg/kg/day.

What about the NEL [6, 22] of the same compound?
Its NEL is < 0.00012 mg/kg/day.

What about the LOAEL [6, 23] of the same compound?
The LOAEL was 0.00021 mg/kg/day.

And the NOAEL [6, 23]?
Its NOAEL is < 0.00021 mg/kg/day.

Which results are given for `O=P1(N(CCCl)CCCl)NCCCO1` (stereo not drawn) [Cyclophosphamide]?
LEL [7]: 20 mg/kg/day; LOAEL [7]: > 45 mg/kg/day; NEL [7]: < 20 mg/kg/day; NOAEL [7]: ≥ 45 mg/kg/day

Which LEL [8, 24] does the source give for `CNC(=O)Oc1cccc(N=CN(C)C)c1.Cl` [Formetanate hydrochloride] here?
The LEL was 0.45 mg/kg/day.

And the NEL [8, 24]?
The NEL was < 0.45 mg/kg/day.

And the LOAEL [8, 25]?
The LOAEL was > 12 mg/kg/day.

What about the NOAEL [8, 25] of the same compound?
Its NOAEL is ≥ 12 mg/kg/day.

What about the LOAEL ([8]; group: systemic, systemic / in life observation / body weight / body weight) of the same compound?
Its LOAEL is 12 mg/kg/day.

And the LEL [8, 26]?
Its LEL is 12 mg/kg/day.

And the NEL [8, 26]?
Its NEL is 2.3 mg/kg/day.

And the NOAEL [8, 26]?
The NOAEL was 2.3 mg/kg/day.

And the LEL [9, 27]?
Its LEL is 1.74 mg/kg/day.

What about the LOAEL [9, 27] of the same compound?
The LOAEL was 1.74 mg/kg/day.

And the NEL [9, 27]?
Its NEL is 0.37 mg/kg/day.

And the NOAEL [9, 27]?
The NOAEL was 0.37 mg/kg/day.

And the LEL [9, 28]?
The LEL was 1.74 mg/kg/day.

And the LOAEL [9, 28]?
The LOAEL was 1.74 mg/kg/day.

What about the NEL [9, 28] of the same compound?
The NEL was 0.37 mg/kg/day.

What about the NOAEL [9, 28] of the same compound?
Its NOAEL is 0.37 mg/kg/day.

What about the LEL [10] of the same compound?
The LEL was 70 mg/kg/day.

And the LOAEL [10]?
The LOAEL was 70 mg/kg/day.

And the NEL [10]?
Its NEL is 7 mg/kg/day.

And the NOAEL [10]?
The NOAEL was 7 mg/kg/day.

What about the LEL [11, 29] of the same compound?
Its LEL is 15 mg/kg/day.

And the LOAEL [11, 29]?
Its LOAEL is 15 mg/kg/day.

What about the NEL [11, 29] of the same compound?
Its NEL is 5 mg/kg/day.

What about the NOAEL [11, 29] of the same compound?
The NOAEL was 5 mg/kg/day.

What about the LEL [11, 30] of the same compound?
The LEL was 15 mg/kg/day.

And the LOAEL [11, 30]?
Its LOAEL is 15 mg/kg/day.

What about the NEL [11, 31] of the same compound?
The NEL was 5 mg/kg/day.

What about the NOAEL [11, 31] of the same compound?
Its NOAEL is 5 mg/kg/day.
